Values belong to the molecule of their own block, whether it stands above or below them.
Tested on: 519858-162-T-J1-PDC complex spheroid viability
Experiment: Anticancer human tumor 519858-162-T-J1-PDC patient-derived colon adenocarcinoma cell line growth inhibition [GQUAD]
Details: for IC50: curve of first compound; for viability, T/C: stronger effect = lower value
In short: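 Multi-cell-type spheroids of tumor cells with HUVEC and mesenchymal stem cells, treated with drug combinations. Concentrations descend in half-log steps from near clinical Cmax, or from 10 microM where Cmax is unknown; viability read-out.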

[1] = second compound 0.0316 µM, first compound 0.0316 µM
[2] = second compound 0.0316 µM, first compound 0.1 µM
[3] = second compound 0.0316 µM, first compound 0.316 µM
[4] = second compound 0.0316 µM, first compound 1 µM
[5] = second compound 0.0316 µM, first compound 3.16 µM
[6] = second compound 0.0316 µM, first compound 10 µM
[7] = second compound 0.1 µM, first compound 0.0316 µM
[8] = second compound 0.1 µM, first compound 0.1 µM
[9] = second compound 0.1 µM, first compound 0.316 µM
[10] = second compound 0.1 µM, first compound 1 µM
[11] = second compound 0.1 µM, first compound 3.16 µM
[12] = second compound 0.1 µM, first compound 10 µM
[13] = second compound 0.316 µM, first compound 0.0316 µM
[14] = second compound 0.316 µM, first compound 0.1 µM
[15] = second compound 0.316 µM, first compound 0.316 µM
[16] = second compound 0.316 µM, first compound 1 µM
[17] = second compound 0.316 µM, first compound 3.16 µM
[18] = second compound 0.316 µM, first compound 10 µM
[19] = second compound 1 µM, first compound 0.0316 µM
[20] = second compound 1 µM, first compound 0.1 µM
[21] = second compound 1 µM, first compound 0.316 µM
[22] = second compound 1 µM, first compound 1 µM
[23] = second compound 1 µM, first compound 3.16 µM
[24] = second compound 1 µM, first compound 10 µM
[25] = second compound 3.16 µM, first compound 0.0316 µM
[26] = second compound 3.16 µM, first compound 0.1 µM
[27] = second compound 3.16 µM, first compound 0.316 µM
[28] = second compound 3.16 µM, first compound 1 µM
[29] = second compound 3.16 µM, first compound 3.16 µM
[30] = second compound 3.16 µM, first compound 10 µM
[31] = second compound 10 µM, first compound 0.0316 µM
[32] = second compound 10 µM, first compound 0.1 µM
[33] = second compound 10 µM, first compound 0.316 µM
[34] = second compound 10 µM, first compound 1 µM
[35] = second compound 10 µM, first compound 3.16 µM
[36] = second compound 10 µM, first compound 10 µM
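Further: spheroids exposed to compounds for 7 days.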
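Wherever viability, T/C is given: 100% = DMSO vehicle control viability.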

IC50 (second compound 0.0316 µM): > 10000 nM | IC50 (second compound 0.1 µM): > 10000 nM | IC50 (second compound 0.316 µM): 10000 nM | IC50 (second compound 1 µM): < 31.6 nM | IC50 (second compound 3.16 µM): < 31.6 nM | IC50 (second compound 10 µM): < 31.6 nM
SMILES: CC(C)n1c(=O)n(C)c2cnc3cc(F)c(-c4ccc(OCCCN5CCCCC5)nc4)cc3c21 + Cc1cnc(CNC(=O)c2c(=O)c3ccc(N4CCCN(C)CC4)nc3n3c2sc2ccccc23)cn1
viability, T/C [1]: 55.4% | viability, T/C [2]: 61.4% | viability, T/C [3]: 73.1% | viability, T/C [4]: 53.7% | viability, T/C [5]: 70.2% | viability, T/C [6]: 66.4% | viability, T/C [7]: 66.8% | viability, T/C [8]: 47.8% | viability, T/C [9]: 64.3% | viability, T/C [10]: 60.6% | viability, T/C [11]: 56.3% | viability, T/C [12]: 54.6% | viability, T/C [13]: 66.7% | viability, T/C [14]: 68.9% | viability, T/C [15]: 52.3% | viability, T/C [16]: 48.5% | viability, T/C [17]: 49.8% | viability, T/C [18]: 61% | viability, T/C [19]: 44.2% | viability, T/C [20]: 45.9% | viability, T/C [21]: 44.2% | viability, T/C [22]: 46.7% | viability, T/C [23]: 44.1% | viability, T/C [24]: 43% | viability, T/C [25]: 35.6% | viability, T/C [26]: 25.4% | viability, T/C [27]: 54.8% | viability, T/C [28]: 44.1% | viability, T/C [29]: 60.2% | viability, T/C [30]: 51.5% | viability, T/C [31]: 37.1% | viability, T/C [32]: 43.6% | viability, T/C [33]: 46.7% | viability, T/C [34]: 52.5% | viability, T/C [35]: 59.7% | viability, T/C [36]: 68.8%

SMILES: CC(C)(O)C1CCC(Nc2ccc3ncc(-c4cccc(C(F)(F)F)c4)n3n2)CC1 (stereo not drawn) + Cc1[nH]c2ccc(F)cc2c1-c1nc2c3cccnc3c3ncccc3c2[nH]1
IC50 (second compound 0.0316 µM): 2370 nM | IC50 (second compound 0.1 µM): 2200 nM | IC50 (second compound 0.316 µM): 1970 nM | IC50 (second compound 1 µM): 1810 nM | IC50 (second compound 3.16 µM): 1750 nM | IC50 (second compound 10 µM): 1650 nM | viability, T/C [1]: 87.7% | viability, T/C [2]: 99.6% | viability, T/C [3]: 104% | viability, T/C [4]: 98.5% | viability, T/C [5]: 16.1% | viability, T/C [6]: 52.3% | viability, T/C [7]: 101% | viability, T/C [8]: 82.5% | viability, T/C [9]: 97.5% | viability, T/C [10]: 120% | viability, T/C [11]: 26.7% | viability, T/C [12]: 26.9% | viability, T/C [13]: 68.2% | viability, T/C [14]: 84.2% | viability, T/C [15]: 89.3% | viability, T/C [16]: 131% | viability, T/C [17]: 14.9% | viability, T/C [18]: 24.8% | viability, T/C [19]: 88% | viability, T/C [20]: 89.3% | viability, T/C [21]: 99.9% | viability, T/C [22]: 100% | viability, T/C [23]: 7.25% | viability, T/C [24]: 9.88% | viability, T/C [25]: 97.7% | viability, T/C [26]: 84% | viability, T/C [27]: 71.5% | viability, T/C [28]: 122% | viability, T/C [29]: 2.95% | viability, T/C [30]: 4.04% | viability, T/C [31]: 87.5% | viability, T/C [32]: 63% | viability, T/C [33]: 80.3% | viability, T/C [34]: 102% | viability, T/C [35]: 6.15% | viability, T/C [36]: 7.1%

IC50 (second compound 0.0316 µM): 244 nM | IC50 (second compound 0.1 µM): 339 nM | IC50 (second compound 0.316 µM): 345 nM | IC50 (second compound 1 µM): 173 nM | IC50 (second compound 3.16 µM): 107 nM | IC50 (second compound 10 µM): < 31.6 nM
SMILES: O=C(NO)c1cnc(N2CCN(S(=O)(=O)c3ccc4ccccc4c3)CC2)nc1 + Cc1cnc(CNC(=O)c2c(=O)c3ccc(N4CCCN(C)CC4)nc3n3c2sc2ccccc23)cn1
viability, T/C [1]: 119% | viability, T/C [2]: 72.2% | viability, T/C [3]: 50.9% | viability, T/C [4]: 13.3% | viability, T/C [5]: 0.34% | viability, T/C [6]: 0.45% | viability, T/C [7]: 81.2% | viability, T/C [8]: 104% | viability, T/C [9]: 53% | viability, T/C [10]: 11.7% | viability, T/C [11]: 1.16% | viability, T/C [12]: 1.51% | viability, T/C [13]: 92% | viability, T/C [14]: 85.8% | viability, T/C [15]: 53.8% | viability, T/C [16]: 8.35% | viability, T/C [17]: 5.71% | viability, T/C [18]: 1.25% | viability, T/C [19]: 88.7% | viability, T/C [20]: 66.8% | viability, T/C [21]: 31.8% | viability, T/C [22]: 6.88% | viability, T/C [23]: 1.42% | viability, T/C [24]: 0.68% | viability, T/C [25]: 68.2% | viability, T/C [26]: 45.7% | viability, T/C [27]: 37.1% | viability, T/C [28]: 5.54% | viability, T/C [29]: 3.32% | viability, T/C [30]: 1.98% | viability, T/C [31]: 42.8% | viability, T/C [32]: 44.6% | viability, T/C [33]: 26.1% | viability, T/C [34]: 5.86% | viability, T/C [35]: 3.74% | viability, T/C [36]: 2.11%

SMILES: COc1ccc([C@@H](O)c2cc(-c3ncnc4cc(N5CCOCC5)ccc34)c(F)cc2Cl)nn1 + Cc1[nH]c2ccc(F)cc2c1-c1nc2c3cccnc3c3ncccc3c2[nH]1
IC50 (second compound 0.0316 µM): > 10000 nM | IC50 (second compound 0.1 µM): > 10000 nM | IC50 (second compound 0.316 µM): > 10000 nM | IC50 (second compound 1 µM): > 10000 nM | IC50 (second compound 3.16 µM): 5820 nM | IC50 (second compound 10 µM): 9780 nM | viability, T/C [1]: 79% | viability, T/C [2]: 99.7% | viability, T/C [3]: 71.4% | viability, T/C [4]: 86.4% | viability, T/C [5]: 74.1% | viability, T/C [6]: 53% | viability, T/C [7]: 82.9% | viability, T/C [8]: 92.8% | viability, T/C [9]: 88.3% | viability, T/C [10]: 72.6% | viability, T/C [11]: 85.1% | viability, T/C [12]: 54.7% | viability, T/C [13]: 96% | viability, T/C [14]: 104% | viability, T/C [15]: 64% | viability, T/C [16]: 72.7% | viability, T/C [17]: 89.4% | viability, T/C [18]: 70.2% | viability, T/C [19]: 123% | viability, T/C [20]: 90.4% | viability, T/C [21]: 87% | viability, T/C [22]: 77.5% | viability, T/C [23]: 97.4% | viability, T/C [24]: 42.8% | viability, T/C [25]: 66.9% | viability, T/C [26]: 87.5% | viability, T/C [27]: 84.9% | viability, T/C [28]: 64.9% | viability, T/C [29]: 65.5% | viability, T/C [30]: 37.9% | viability, T/C [31]: 58.5% | viability, T/C [32]: 86.9% | viability, T/C [33]: 58.9% | viability, T/C [34]: 82.2% | viability, T/C [35]: 70.5% | viability, T/C [36]: 49.5%

— PubChem BioAssay AID2060507 (Molecular Pharmacology Branch, DTP, NCI, 2025)
